Structures are written as SMILES.

Holding throughout (assay type): in vivo, male BALB/c mice
The subject of one data set is oral mucositis. In words: anti-mucositis activity (mucositis score) in mice with 5-FU + tongue scratching induced oral mucositis. The settings on record: score 0-5. The method, then:
(§1) The in vivo pharmacological assessment of anti-mucositis activity of the topical or oromucosal gel formulation in male BALB/c mice was performed. The study protocol involves six BALB/c mice namely vehicle, 5-Fluorouracil (FU) group, 5 FU-group+Scratching, FU-group+Scratching, FU-group+Scratching+100 ug gel and FU-group+Scratching+30 ug respectively were maintained under specific pathogen-free conditions. The mice were 6-8 weeks of age and weighed 25-30 g. All animal experimental procedures were performed in accordance with the Institutional Animal Ethics Committee (IAEC) guidelines along with approval from IAEC.
The activity of misoprostol of the topical or oromucosal gel formulation was analyzed for anti-mucositis in mice. The anti-mucositis activity is analyzed based on the mucositis score. The scoring parameters for anti-mucositis activity include erythema, vasodilation, erosion, bleeding, fibrosis, and ulcers.
A scoring method is adopted for oral mucositis induced by radiation and chemotherapy. The scoring evaluates the relationship between dosage, delivery method and complications. The Scoring systems are useful in assessing the impact of therapy on patient. […]
FIG. 5 illustrates the effect of topical or oromucosal gel formulation in mice with oral mucositis. The mucositis score was evaluated for 6 groups of mice (G1-G6) over a period of 15 days.

Another data set concerns TNF-α. Kind of data set: tongue and serum TNF-α levels in mice with oral mucositis (mouse TNF-α ELISA kit). The settings on record: 5-FU + scratch mice. The method, then: as §1
(§2) The anti-mucositis study protocol involves mice that are intraperitoneally administered with 5-FU at 100 mg/kg on day 0. The scratching group of mice was anesthetized with isoflurane and an area of 0.5 cm^2 of the tongue was scratched using the tip of an 18-gauge needle at an equal force and depth on days 7 and 8. […]
(§3) The levels of biomarkers such as IL-6 and TNF-α were analyzed in mice upon treatment with topical or oromucosal gel formulation. The concentrations of these biomarkers in serum and tongue were analyzed using standard ELISA kits.
The tongue and serum concentrations of TNF-α were analyzed in mice with oral mucositis upon treatment with topical or oromucosal gel formulation. The concentrations of TNF-α in tongue and serum were analyzed using mouse TNF-α ELISA kit.

A further data set deals with IL-6. Kind of data set: tongue and serum IL-6 levels in mice with oral mucositis (mouse IL-6 ELISA kit). The settings on record: 5-FU + scratch mice. As for the experimental part: as §1, §2, §3
The tongue and serum concentrations of IL-6 were analyzed in mice with oral mucositis upon treatment with topical or oromucosal gel formulation. The concentrations of IL-6 in tongue and serum were analyzed using mouse IL-6 ELISA kit.

The nature of data set [1]: body weights of mice with oral mucositis over 15 days. The settings on record: 5-FU + scratch mice; period of 15 days. The method, then:
as §1
The anti-mucositis study protocol involves mice that are intraperitoneally administered with 5-FU at 100 mg/kg on day 0. The scratching group of mice was anesthetized with isoflurane and an area of 0.5 cm^2 of the tongue was scratched using the tip of an 18-gauge needle at an equal force and depth on days 7 and 8. The scratching was blinded to the treatment groups. Dexamethasone was administered orally at 1 mg/kg/day from on day 7.
The body weights of mice with oral mucositis upon treatment with topical or oromucosal gel formulation were analyzed for a period of 15 days.

As for `C[C@@H]1C[C@H]2[C@@H]3CCC4=CC(=O)C=C[C@]4(C)[C@@]3(F)[C@@H](O)C[C@]2(C)[C@@]1(O)C(=O)CO` [Dexamethasone], the “mucositis score reached in the increase phase” value in the data set on oral mucositis (5-FU 100 mg/kg i.p. day 0 + tongue scratch days 7 and 8, increase till day 8) was found to be 3. The “mucositis score after decrease over the remaining days” value in the data set with oral mucositis (5-FU + scratch, end of 15 day period) is on record as 1. In addition, the “serum TNF-α mean concentration” value in the data set with TNF-α (serum) is given as 3.32. For the same compound, the “tongue TNF-α mean concentration” value in the data set on TNF-α (tongue) was determined as 20.07. For the same compound, the “serum IL-6 mean concentration” value in the data set with IL-6 (serum) was found to be 6.91. For the same compound, the “tongue IL-6 mean concentration” value in the data set on IL-6 (tongue) is reported as 44.20. Besides, in data set [1], the body weight course entry was “decrease in weight for 8 days and gradually increases over the remaining 7 days”.

For the origin of these results see patent US20250049708A1, “A TOPICAL GEL FORMULATION FOR SKIN AND MOUTH DISORDERS AND A PROCESS OF PREPARATION THEREOF” (priority 2021, published 2025).
